Where two headings read alike, the source gives them in different places. Each block holds one molecule with its values, some of them ahead of it. Where a SMILES comes first, the peptide text is derived from it.
What was measured:
[1] = target: T1, XIAP BIR3 (Homo sapiens, UniProt P98170); assay: BIR3 TR-FRET assay (displacement of AVPI-derived peptide); format: binding
T1 construct: 6×histidine-tagged BIR2 (amino acids 124–240) or BIR3 (amino acids 241–356) domain of the XIAP protein
Experimental: (§1) Time-resolved fluorescence resonance energy transfer (TR-FRET) signals were measured 1 h later at room temperature. Compound potency was assessed at ten serially diluted concentrations. The percentage of inhibition at each concentration was determined to generate an IC50 value for each compound.

[2] = target: T2, XIAP BIR2 (Homo sapiens, UniProt P98170); assay: BIR2 TR-FRET assay (displacement of AVPI-derived peptide); format: binding
T2 construct: 6×histidine-tagged BIR2 (amino acids 124–240) or BIR3 (amino acids 241–356) domain of the XIAP protein
T2 sequence (P98170 124-240): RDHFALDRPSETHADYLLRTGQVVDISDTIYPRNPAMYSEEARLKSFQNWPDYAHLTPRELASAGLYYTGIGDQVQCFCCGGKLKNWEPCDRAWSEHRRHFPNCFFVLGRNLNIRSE
Experimental: as §1

[3] = target: the molecule itself; assay: crystal structure; apo BIR2 crystals, sitting drop, 1.7-1.9 M ammonium sulfate, 125 mM bis-tris propane pH 7.0, room temperature; two molecules (A and B)
[4] = target: 6×histidine-tagged BIR2 (amino acids 124–240) domain of the XIAP protein (UniProt P98170); assay: AlphaScreen or HTRF; TR-FRET competition: 10 nM 6xHis BIR2 or BIR3 domain with 20 nM …-(epsilon-biotin)-OH; europium streptavidin (1.5 nM) and allophycocyanin anti-histidine antibody (15 nM); 50 mM Tris-HCl pH 7.5, 100 mM NaCl, 1 mM DTT, 0.1 mg/ml BSA; 45 min at 310 K, read 1 h later at room temperature; ten concentrations; Ki from IC50 by Cheng-Prusoff
6×histidine-tagged BIR2 (amino acids 124–240) domain of the XIAP protein, sequence (P98170 124-240): as above

[5] = FRET-based displacement of AVPI-derived peptide from 6xHis BIR3 (241-356), Ki from IC50 by Cheng-Prusoff, read-out: BIR3 K i
[6] = FRET-based displacement of AVPI-derived peptide from 6xHis BIR2 (124-240), Ki from IC50 by Cheng-Prusoff, read-out: BIR2 K i

T1 sequence (P98170 241-356): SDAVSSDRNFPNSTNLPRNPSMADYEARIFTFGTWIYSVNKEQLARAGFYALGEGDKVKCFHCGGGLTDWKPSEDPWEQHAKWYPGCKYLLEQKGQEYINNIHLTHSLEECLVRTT

Molecule: CC[C@H](C)[C@H](NC(=O)[C@H](C)N)C(=O)N[C@@H](C)C(=O)N[C@H](C(=O)O)C(C)C [AIAV] (H-AIAV-OH)
- Ki [1]: 28.2 µM
- Ki [2]: 1.87 µM

Molecule: CC[C@H](C)[C@H](NC(=O)[C@@H]1CCCN1C(=O)[C@@H](NC(=O)[C@H](C)N)[C@@H](C)CC)C(=O)O [AIPI] (H-AIPI-OH)
- Ki [1, 5]: 0.08 µM
- Ki [2, 6]: 3.11 µM

Molecule: C[C@H](N)C(=O)N[C@H](C(=O)N[C@@H](C)C(=O)N[C@@H](C)C(=O)O)[C@@H](C)O [ATAA] (H-ATAA-OH)
- Ki [1, 5]: > 47 µM
- activity against BIR3 (in words) ([1]; TR-FRET assay): inactive
- Ki [2, 6]: 1.7 µM

Molecule: CC[C@H](C)[C@H](NC(=O)[C@H](CCCNC(=N)N)NC(=O)[C@H](CCSC)NC(=O)[C@H](C)N)C(=O)O [AMRI] (H-AMRI-OH)
- Ki [1, 5]: 5.2 µM
- Ki [2, 6]: 3.52 µM

Molecule: C[C@H](N)C(=O)N[C@@H](CCCNC(=N)N)C(=O)N1CCC[C@H]1C(=O)N[C@@H](CCCNC(=N)N)C(=O)O [ARPR] (H-ARPR-OH)
- Ki [2, 6]: > 53 µM

Molecule: CSCC[C@H](NC(=O)[C@H](C)N)C(=O)N[C@@H](CCCNC(=N)N)C(=O)N[C@H](C(=O)O)C(C)C [AMRV] (H-AMRV-OH)
- Ki [1, 5]: 32.9 µM
- Ki [2, 6]: 2.41 µM

B1: XIAP BIR2(152–236;C202A,C213G) (domain or fragment, human)
chain: GTIYPRNPAMYSEEARLKSFQNWPDYAHLTPRELASAGLYYTGIGDQVQCFACGGKLKNWEPGDRAWSEHRRHFPNCFFVLGRNLN
notes: printed as hBIR2; Two molecules (A and B) in the crystal; also called hBIR2(152–236;C202A,C213G); BIR2 domain of XIAP; source: E. coli Rosetta2(DE3)pLysS, purified (Ni-NTA, TEV cleavage, Superdex 75); not shown: His6, N-terminal, cleaved
- binding result [3]: binds

Second part, the molecule after the results:

- Ki [1, 5]: 26.1 µM
- Ki [2, 6]: 1.87 µM
Molecule: CC(C)[C@H](NC(=O)[C@H](C)NC(=O)[C@@H](NC(=O)[C@H](C)N)C(C)C)C(=O)O [AVAV] (H-AVAV-OH)

- Ki [1, 5]: 12.5 µM
- Ki [2, 6]: 34 µM
Molecule: CC[C@H](C)[C@H](NC(=O)[C@@H]1CCCN1C(=O)[C@H](CCSC)NC(=O)[C@@H](N)CO)C(=O)O [SMPI] (H-SMPI-OH)

- Ki [1, 5]: > 47 µM
- Ki [2, 6]: 12.3 µM
Molecule: CSCC[C@H](NC(=O)[C@@H](N)CO)C(=O)N[C@@H](CCCNC(=N)N)C(=O)N[C@H](C(=O)O)C(C)C [SMRV] (H-SMRV-OH)

- Ki [2, 6]: 2.54 µM
Molecule: CC(C)[C@H](NC(=O)[C@@H](NC(=O)[C@@H](NC(=O)[C@H](C)N)C(C)C)C(C)C)C(=O)O [AVVV] (H-AVVV-OH)

- Ki [1, 5]: 32.3 µM
- Ki [2, 6]: 2.17 µM
Molecule: CC(C)[C@H](NC(=O)[C@H](C)NC(=O)[C@@H](NC(=O)[C@H](C)N)[C@@H](C)O)C(=O)O [ATAV] (H-ATAV-OH)

- Ki [4]: 12.2 µM
Molecule: SMRV
